Experimental data from ChEMBL document CHEMBL5728229, “Halo-substituted piperidines as orexin receptor modulators” (2021).

Assays:
[1] = target: T1, Orexin/Hypocretin receptor type 1 (Homo sapiens, UniProt O43613); test: (§1) Orexin Receptor Cell-Based Functional Assay: Measurement of [Ca2+]i using a FLIPR: CHO—OX1 or CHO—OX2 cells were seeded into black-walled clear-base 384-well plates (Corning, catalog #3712) at a density of 20,000 cells per well in F12-K medium supplemented with 10% FBS and then incubated in a 5% CO2, 37° C. incubator overnight to reach 90% confluency. The cells were incubated with equal volume of calcium 6 loading buffer (Molecular Devices, Inc.) containing 2.5 mM probenecid at 37° C. for 2 h, followed by test compounds (dose-range 0.1 nM-10 μM) for another 30 min. The plates were then placed into a FLIPR (Molecular Devices, Inc.) to monitor fluorescence (λ excitation 488 nm, λ emission 540 nm) before and after the addition of EC90 of [OX].
T1 sequence (O43613 whole entry): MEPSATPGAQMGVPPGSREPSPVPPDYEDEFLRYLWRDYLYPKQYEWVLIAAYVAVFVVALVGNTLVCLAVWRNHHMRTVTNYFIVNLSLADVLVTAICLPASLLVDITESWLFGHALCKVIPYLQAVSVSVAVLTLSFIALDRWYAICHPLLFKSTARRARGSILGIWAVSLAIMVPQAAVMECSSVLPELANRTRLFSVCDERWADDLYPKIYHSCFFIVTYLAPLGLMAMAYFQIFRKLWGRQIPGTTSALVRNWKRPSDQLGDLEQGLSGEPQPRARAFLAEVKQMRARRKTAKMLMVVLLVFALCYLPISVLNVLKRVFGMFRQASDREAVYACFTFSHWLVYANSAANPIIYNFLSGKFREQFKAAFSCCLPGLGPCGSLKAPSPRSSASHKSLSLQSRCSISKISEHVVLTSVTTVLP

Orexin receptor type 2 = target: T2, Orexin receptor type 2 (Homo sapiens, UniProt O43614); test: as §1
T2 sequence (O43614 whole entry): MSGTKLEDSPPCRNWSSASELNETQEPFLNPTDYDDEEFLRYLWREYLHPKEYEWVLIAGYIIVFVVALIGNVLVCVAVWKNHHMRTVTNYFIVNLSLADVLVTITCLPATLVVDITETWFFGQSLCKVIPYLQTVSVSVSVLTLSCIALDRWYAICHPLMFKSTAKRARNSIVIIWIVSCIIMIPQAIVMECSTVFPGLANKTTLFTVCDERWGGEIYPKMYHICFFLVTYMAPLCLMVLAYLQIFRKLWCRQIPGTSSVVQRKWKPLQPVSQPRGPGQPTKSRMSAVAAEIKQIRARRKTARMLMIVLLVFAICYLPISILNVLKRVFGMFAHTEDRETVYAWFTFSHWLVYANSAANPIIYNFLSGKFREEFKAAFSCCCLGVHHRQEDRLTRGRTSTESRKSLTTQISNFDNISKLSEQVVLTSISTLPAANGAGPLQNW

SMILES: C[C@@H]1CC(F)(F)CN(C(=O)c2nn(C)cc2-c2ncc(F)cn2)[C@@H]1COc1cnc(C(F)(F)F)cn1
- IC50 [1]: 1000 nM

SMILES: C[C@@H]1CC(F)(F)CN(C(=O)c2nn(C)cc2-c2ncc(F)cn2)[C@@H]1COc1ncc(C(F)(F)F)cc1F
- IC50 [1]: 1000 nM

SMILES: C[C@@H]1CC(F)(F)CN(C(=O)c2nn(C)cc2-c2ccccc2)[C@@H]1COc1ccc(C(F)(F)F)cn1
- IC50 [1]: 8 nM
- IC50 (Orexin receptor type 2): > 5000 nM
